Patent US20090282496A1, “Androgen Receptor Related Methods for Treating Bladder Cancer” (University of Rochester Medical Center, priority 2008, published 2009)

Experiments:
[1] = system: AR-negative 5637 xenograft tumors; assay: 5637 mouse xenograft, tumor progression study; format: in vivo, male athymic nude mouse; details: androgen deprivation therapy (castration and/or flutamide) at 12 weeks
Protocol: Bladder cancer cell lines (TCC-SUP, UMUC3, and 5637) were harvested, washed twice with PBS, and resuspended in Matrigel (BD Bioscience) at a final concentration of 1×10^7 cells/mL. Cells (1×10^6 cells in 100 μl per site) were then injected subcutaneously into the right and left flanks of 6-week-old male athymic nude mouse. […] Med. […] Hormonal pellets were replaced as required (every 90 days). Tumor weight was calculated by the following formula: tumor weight (mg)=tumor length (mm)×[tumor width (mm)]^2×0.5 (Geram et al., Cancer Chemother. Rep., 3:47-52 (1972)).

TCC-SUP xenograft tumors = assay: TCC-SUP mouse xenograft, tumor progression study; format: in vivo, male athymic nude mouse
Source text: Total RNA from mouse bladder and xenograft tumor tissues and cultured cells was extracted by the acid guanidinium-phenol-chloroform method as previously described (Miyamoto et al., Cancer, 75:2565-70 (1995)) or by using Trizol reagent (Life Science). Isolated RNAs were reverse transcribed to cDNA using random hexamers as described (Miyamoto et al., Cancer, 75:2565-70 (1995) and Miyoshi et al., Prostate, 56:280-6 (2003)), and amplified by PCR using a primer set specific for the AR gene (Miyoshi et al., Prostate, 56:280-6 (2003)). Using the iCycler (Bio-Rad) and the methods previously described by Miyoshi et al., Prostate, 56:280-6 (2003), real-time quantitative PCR analysis of AR, basic fibroblast growth factor (bFGF), vascular endothelial growth factor (VEGF), and matrix metalloproteinase-9 (MMP-9) was performed on the tissue samples from mouse xenograft tumors. The following PCR primers were designed using Beacon Designer 2 (Premier Biosoft): bFGF: 5′-[…]-3′ (SEQ ID NO. 1) and 5′-[…]-3′ (SEQ ID NO. 2), VEGF: 5′-[…]-3′ (SEQ ID NO. 3) and 5′-[…]-3′ (SEQ ID NO. 4), and MMP-9: 5′-[…]-3′ (SEQ ID NO. 5) and 5′-[…]-3′ (SEQ ID NO. 6). β-actin was used as an internal control.
(§1) Bladder cancer cell lines (TCC-SUP, UMUC3, and 5637) were harvested, washed twice with PBS, and resuspended in Matrigel (BD Bioscience) at a final concentration of 1×10^7 cells/mL. Cells (1×10^6 cells in 100 μl per site) were then injected subcutaneously into the right and left flanks of 6-week-old male athymic nude mouse. Treatment (castration or sham surgery, flutamide [0.5 mg/mouse] or placebo pellet injection, and the recently developed anti-AR molecule ASC-J9 (50 mg/Kg or DMSO injection) (Ohtsu et al., J. Med. Chem., 45:5037-42 (2002)) was initiated either (1) at the same time as tumor cell injection (for tumor incidence studies, n=8 mice in each group) or (2) when the sizes of all tumors reached 40 mm^3 (for tumor progression studies, n=12 tumors from 6 mice in each group). Hormonal pellets were replaced as required (every 90 days). Tumor weight was calculated by the following formula: tumor weight (mg)=tumor length (mm)×[tumor width (mm)]^2×0.5 (Geram et al., Cancer Chemother. Rep., 3:47-52 (1972)). Using calipers, each tumor was measured twice a week until either the tumor size reached 40 mm^3 (for tumor incidence study) (Chen et al., Nat. Med., 10:33-9 (2004)), or until the tumor exceeded 10% of the animal's body weight, at which time the mouse was killed (for tumor progression study).

[2] = system: TCC-SUP and UMUC3 stable sublines (control-siRNA, AR-siRNA); assay: Tumor incidence (tumorigenicity) study of control-siRNA and AR-siRNA sublines in nude mice; format: in vivo, male athymic nude mouse
Source text: (§2) The reporter plasmids [mouse mammary tumor virus (MMTV)-luciferase (Luc) and (ARE)4-Luc (provided by Dr. Michael L. Lu at Harvard Medical School)] as well as a retrovirus vector pMSCV/U6 (Clontech)-AR-siRNA were described in previous studies (Miyamoto et al., Int. J. Cancer, 117:866-72 (2005) and Yeh et al., J. Exp. Med. 198:1899-908 (2003)). Using SuperFect reagent (Qiagen), stable cell lines expressing the AR-siRNA were established by transfecting pMSCV/U6-AR-siRNA into Phi-NX packaging retrovirus producer cells (developed by the Nolan Lab at Stanford University). The target cells (i.e., TCC-SUP, UMUC3, and 5637) were then cultured in the presence of the viral supernatant, and infected cells were selected with puromycin (Sigma).
as §1

UMUC3 cells = assay: Cell proliferation assay (MTT), UMUC3; format: cell-based, human; details: UMUC3 stable subline, without androgen treatment, vs. control-siRNA
AR = AR knockdown in stable transfectants (RT-PCR, immunoblot); format: cell-based, human; details: AR-siRNA-expressing TCC-SUP and UMUC3 cells vs. scrambled control-siRNA
Source text: as §2
Total RNA from mouse bladder and xenograft tumor tissues and cultured cells was extracted by the acid guanidinium-phenol-chloroform method as previously described (Miyamoto et al., Cancer, 75:2565-70 (1995)) or by using Trizol reagent (Life Science). […] Using the iCycler (Bio-Rad) and the methods previously described by Miyoshi et al., Prostate, 56:280-6 (2003), real-time quantitative PCR analysis of AR, basic fibroblast growth factor (bFGF), vascular endothelial growth factor (VEGF), and matrix metalloproteinase-9 (MMP-9) was performed on the tissue samples from mouse xenograft tumors. […]

TCC-SUP cells = assay: Cell proliferation assay (MTT), TCC-SUP; format: cell-based, human; details: TCC-SUP stable subline, without androgen treatment, vs. control-siRNA

Row | Molecule | reduction in tumor size [1] | tumor size vs. control mice (TCC-SUP xenograft tumors; castration and/or antiandrogen (flutamide pellet), at 16 weeks) | levels of angiogenic factors and metastasis-related factors (bFGF, VEGF, MMP-9) in tumors (TCC-SUP xenograft tumors; harvested TCC-SUP tumors, real-time RT-PCR) | tumorigenicity of AR-expressing (control-siRNA-transfected) bladder cancer ([2]; androgen deprivation (castration or flutamide pellet)) | development of AR-siRNA-expressing tumors ([2]; castration and flutamide treatment) | reduction of cell proliferation by AR knockdown (UMUC3 cells) | latency of tumor formation ([2]; vs. control-siRNA cells with control treatment, treatment from tumor cell implantation, tumor positive at 40 mm3) | levels of AR mRNA and protein (AR) | reduction of cell proliferation by AR knockdown (TCC-SUP cells)
1 | CC(C)C(=O)Nc1ccc([N+](=O)[O-])c(C(F)(F)F)c1 [flutamide, Flutamide] | up to 12% | statistically significantly smaller | reduced | suppressed tumorigenicity | little effect | – | – | – | –
2 | AR-siRNA: siRNA against AR expressed from retrovirus vector pMSCV/U6-AR-siRNA; knocks down the AR in mammalian cells (guide GGGCCCCTGGATGGATAGCTACCTCGAGGTAGCTATCCATCCAGGGGCC; listed as Homo sapiens) | – | – | – | – | – | 15% | substantially prolonged | substantially lower | 20%
